Here are results for 33 compounds from patent US9365548B2, “Benzoimidazol-2-yl pyrimidines and pyrazines as modulators of the histamine H4 receptor” (Janssen Pharmaceutica NV, priority 2006, dated 2016).

What is called Ki is a dissociation constant, usually derived from enzyme kinetics or from competition with a known ligand.

The test deals with T1, Recombinant Human Histamine H4 Receptor (Homo sapiens, UniProt Q9H3N8).
T1 construct: expressed in transfected cells; host or cells: SK-N-MC cells or COS7 cells, transiently transfected; cell membranes used
T1 sequence (Q9H3N8 whole entry): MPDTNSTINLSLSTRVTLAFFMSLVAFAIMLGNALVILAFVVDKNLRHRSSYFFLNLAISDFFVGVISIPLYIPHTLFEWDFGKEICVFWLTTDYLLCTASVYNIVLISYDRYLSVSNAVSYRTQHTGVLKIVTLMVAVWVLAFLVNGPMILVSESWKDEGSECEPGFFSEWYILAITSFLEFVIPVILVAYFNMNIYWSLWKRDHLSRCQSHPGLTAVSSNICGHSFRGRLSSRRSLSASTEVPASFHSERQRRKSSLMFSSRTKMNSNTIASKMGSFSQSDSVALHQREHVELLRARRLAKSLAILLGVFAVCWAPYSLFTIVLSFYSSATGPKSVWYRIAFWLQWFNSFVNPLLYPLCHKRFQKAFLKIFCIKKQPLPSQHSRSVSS
In words: Binding Assay on Recombinant Human Histamine H4 Receptor. The note with it: competition binding with 3H-histamine, membranes of SK-N-MC or COS7 cells expressing human histamine H4 receptor; Ki by Cheng-Prusoff (KD 5 nM, ligand 5 nM); average of results obtained. The source says: Additional examples of embodiments of this invention are provided by hemitartrate salts of compounds of Formula (I) and by hydrates, such as monohydrates and dihydrates, of compounds of Formula (I). […]
For the compound `Cc1nc(NCCCC2CCN(C)CC2)ncc1-c1nc2c(C)c(F)ccc2[nH]1` [Example 1, [5-(5-Fluoro-4-methyl-1H-benzoimidazol-2-yl)-4-methyl-pyrimidin-2-yl]-[3-(1-methyl-piperidin-4-yl)-propyl]-amine], the Ki was 0.021 µM. Consider `Cc1cc(C)c2nc(-c3cnc(NCCCC4CCN(C)CC4)nc3C)[nH]c2c1` [Example 2, [5-(4,6-Dimethyl-1H-benzoimidazol-2-yl)-4-methyl-pyrimidin-2-yl]-[3-(1-methyl-piperidin-4-yl)-propyl]-amine], for which the Ki stood at 0.011 µM.

Take `Cc1nc(NCCCC2CCN(C)CC2)ncc1-c1nc2c(C)cc(F)cc2[nH]1` [Example 3, [5-(6-Fluoro-4-methyl-1H-benzoimidazol-2-yl)-4-methyl-pyrimidin-2-yl]-[3-(1-methyl-piperidin-4-yl)-propyl]-amine]: the inhibition constant (Ki) was determined as 0.004 µM.

Consider `Cc1nc(NCCCC2CCN(C)CC2)ncc1-c1nc2c(F)c(F)ccc2[nH]1` [Example 4, [5-(4,5-Difluoro-1H-benzoimidazol-2-yl)-4-methyl-pyrimidin-2-yl]-[3-(1-methyl-piperidin-4-yl)-propyl]-amine], for which the Ki came out at 0.011 µM.

Regarding `Cc1ccc2[nH]c(-c3cnc(NCCCC4CCN(C)CC4)nc3C)nc2c1C` [Example 5, [5-(4,5-Dimethyl-1H-benzoimidazol-2-yl)-4-methyl-pyrimidin-2-yl]-[3-(1-methyl-piperidin-4-yl)-propyl]-amine], the Ki was 0.004 µM. For `Cc1nc(NCCCC2CCN(C)CC2)ncc1-c1nc2c(F)cc(F)cc2[nH]1` [Example 6, [5-(4,6-Difluoro-1H-benzoimidazol-2-yl)-4-methyl-pyrimidin-2-yl]-[3-(1-methyl-piperidin-4-yl)-propyl]-amine], the Ki turned out to be 0.017 µM.

Consider `Cc1cc(C)c2nc(-c3cnc(N(C)CCCC4CCN(C)CC4)nc3C)[nH]c2c1` [Example 7, [5-(4,6-Dimethyl-1H-benzoimidazol-2-yl)-4-methyl-pyrimidin-2-yl]-methyl-[3-(1-methyl-piperidin-4-yl)-propyl]-amine], for which the Ki stood at 0.083 µM.

As for `CCc1nc(NCCCC2CCN(C)CC2)ncc1-c1nc2c(F)c(F)ccc2[nH]1` [Example 9, [5-(4,5-Difluoro-1H-benzoimidazol-2-yl)-4-ethyl-pyrimidin-2-yl]-[3-(1-methyl-piperidin-4-yl)-propyl]-amine], the inhibition constant (Ki) is 0.21 µM. The result for `CCCc1nc(NCCCC2CCN(C)CC2)ncc1-c1nc2c(F)c(C)ccc2[nH]1` [Example 10, [5-(4-Fluoro-5-methyl-1H-benzoimidazol-2-yl)-4-propyl-pyrimidin-2-yl]-[3-(1-methyl-piperidin-4-yl)-propyl]-amine] reads 0.47 µM; that for `Cc1ccc2[nH]c(-c3cnc(NCCCC4CCN(C)CC4)nc3C(C)C)nc2c1C` [Example 11, [5-(4,5-Dimethyl-1H-benzoimidazol-2-yl)-4-isopropyl-pyrimidin-2-yl]-[3-(1-methyl-piperidin-4-yl)-propyl]-amine], 0.36 µM. `Cc1cc(C)c2nc(-c3cnc(NCCCC4CCN(C)CC4)nc3C(C)C)[nH]c2c1` [Example 12, [5-(4,6-Dimethyl-1H-benzoimidazol-2-yl)-4-isopropyl-pyrimidin-2-yl]-[3-(1-methyl-piperidin-4-yl)-propyl]-amine]: the Ki stood at 0.2 µM. As for `Cc1ccc2[nH]c(-c3cnc(NCCCC4CCN(C)CC4)nc3C3CCC3)nc2c1C` [Example 13, [4-Cyclobutyl-5-(4,5-dimethyl-1H-benzoimidazol-2-yl)-pyrimidin-2-yl]-[3-(1-methyl-piperidin-4-yl)-propyl]-amine], the figure is 0.43 µM; as for `CN1CCC(CCCNc2ncc(-c3nc4c(F)c(F)ccc4[nH]3)c(C3CCC3)n2)CC1` [Example 14, [4-Cyclobutyl-5-(4,5-difluoro-1H-benzoimidazol-2-yl)-pyrimidin-2-yl]-[3-(1-methyl-piperidin-4-yl)-propyl]-amine], 1.01 µM. Turning to `Cc1c(F)ccc2[nH]c(-c3cnc(NCCCC4CCN(C)CC4)nc3)nc12` [Example 15, [5-(5-Fluoro-4-methyl-1H-benzoimidazol-2-yl)-pyrimidin-2-yl]-[3-(1-methyl-piperidin-4-yl)-propyl]-amine], the Ki is 0.29 µM. As to `Cc1c(F)ccc2[nH]c(-c3cnc(NCCCC4CCN(C)CC4)nc3C3CCC3)nc12` [Example 16, [4-Cyclobutyl-5-(5-fluoro-4-methyl-1H-benzoimidazol-2-yl)-pyrimidin-2-yl]-[3-(1-methyl-piperidin-4-yl)-propyl]-amine], the inhibition constant Ki is 1.47 µM. The result for `Cc1cc(C)c2nc(-c3cnc(NCCCC4CCN(C)CC4)nc3C3CCC3)[nH]c2c1` [Example 17, [4-Cyclobutyl-5-(4,6-dimethyl-1H-benzoimidazol-2-yl)-pyrimidin-2-yl]-[3-(1-methyl-piperidin-4-yl)-propyl]-amine] reads 1.32 µM; that for `CCCc1nc(NCCCC2CCN(C)CC2)ncc1-c1nc2c(C)c(C)ccc2[nH]1` [Example 18, [5-(4,5-Dimethyl-1H-benzoimidazol-2-yl)-4-propyl-pyrimidin-2-yl]-[3-(1-methyl-piperidin-4-yl)-propyl]-amine], 2.41 µM. As for `Cc1c(F)ccc2[nH]c(-c3cnc(NCCCC4CCN(C)CC4)nc3C(C)C)nc12` [Example 20, [5-(5-Fluoro-4-methyl-1H-benzoimidazol-2-yl)-4-isopropyl-pyrimidin-2-yl]-[3-(1-methyl-piperidin-4-yl)-propyl]-amine], the figure is 0.23 µM; as for `Cc1nc(NCCCC2CCN(C)CC2)ncc1-c1nc2c(C)cccc2[nH]1` [Example 21, [4-Methyl-5-(4-methyl-1H-benzoimidazol-2-yl)-pyrimidin-2-yl]-[3-(1-methyl-piperidin-4-yl)-propyl]-amine], 0.027 µM; as for `Cc1nc(NCCCC2CCN(C)CC2)ncc1-c1nc2ccccc2[nH]1` [Example 22, [5-(1H-Benzoimidazol-2-yl)-4-methyl-pyrimidin-2-yl]-[3-(1-methyl-piperidin-4-yl)-propyl]-amine], 0.11 µM. `Cc1nc(NCCCC2CCN(C)CC2)ncc1-c1nc2cc(F)ccc2[nH]1` [Example 23, [5-(5-Fluoro-1H-benzoimidazol-2-yl)-4-methyl-pyrimidin-2-yl]-[3-(1-methyl-piperidin-4-yl)-propyl]-amine]: the inhibition constant Ki is 0.059 µM. For `Cc1nc(NCCCC2CCN(C)CC2)ncc1-c1nc2cc(C(F)(F)F)ccc2[nH]1` [Example 24, [3-(1-Methyl-piperidin-4-yl)-propyl]-[4-methyl-5-(5-trifluoromethyl-1H-benzoimidazol-2-yl)-pyrimidin-2-yl]-amine], the Ki turned out to be 0.012 µM. The result for `Cc1nc(NCCCC2CCN(C)CC2)ncc1-c1nc2cc(C(C)(C)C)ccc2[nH]1` [Example 25, [5-(5-tert-Butyl-1H-benzoimidazol-2-yl)-4-methyl-pyrimidin-2-yl]-[3-(1-methyl-piperidin-4-yl)-propyl]-amine] reads 0.013 µM. As for `Cc1nc(NCCCC2CCN(C)CC2)ncc1-c1nc2c(C)c(Cl)ccc2[nH]1` [Example 26, [5-(5-Chloro-4-methyl-1H-benzoimidazol-2-yl)-4-methyl-pyrimidin-2-yl]-[3-(1-methyl-piperidin-4-yl)-propyl]-amine], the figure is 0.013 µM. Consider `Cc1c(F)ccc2[nH]c(-c3cnc(NCCCC4CCN(C)CC4)nc3C(F)(F)F)nc12` [Example 27, [5-(5-Fluoro-4-methyl-1H-benzoimidazol-2-yl)-4-trifluoromethyl-pyrimidin-2-yl]-[3-(1-methyl-piperidin-4-yl)-propyl]-amine], for which the inhibition constant (Ki) was determined as 0.092 µM.

For `Cc1cc(F)cc2[nH]c(-c3cnc(NCCCC4CCN(C)CC4)nc3C(F)(F)F)nc12` [Example 28, [5-(6-Fluoro-4-methyl-1H-benzoimidazol-2-yl)-4-trifluoromethyl-pyrimidin-2-yl]-[3-(1-methyl-piperidin-4-yl)-propyl]-amine], the Ki was 0.062 µM. Regarding `CN1CCC(CCCNc2ncc(-c3nc4c(Cl)cc(Cl)cc4[nH]3)c(C(F)(F)F)n2)CC1` [Example 29, [5-(4,6-Dichloro-1H-benzoimidazol-2-yl)-4-trifluoromethyl-pyrimidin-2-yl]-[3-(1-methyl-piperidin-4-yl)-propyl]-amine], the inhibitory constant (Ki) was found to be 0.035 µM. The result for `Cc1ccc2[nH]c(-c3cnc(NCCCC4CCN(C)CC4)nc3C(F)(F)F)nc2c1C` [Example 30, [5-(4,5-Dimethyl-1H-benzoimidazol-2-yl)-4-trifluoromethyl-pyrimidin-2-yl]-[3-(1-methyl-piperidin-4-yl)-propyl]-amine] reads 0.23 µM; that for `CN1CCC(CCCNc2ncc(-c3nc4cc(F)c(F)cc4[nH]3)c(C(F)(F)F)n2)CC1` [Example 31, [5-(5,6-Difluoro-1H-benzoimidazol-2-yl)-4-trifluoromethyl-pyrimidin-2-yl]-[3-(1-methyl-piperidin-4-yl)-propyl]-amine], 0.23 µM; that for `CC(C)c1nc(NCCCC2CCN(C)CC2)ncc1-c1nc2c(F)c(F)ccc2[nH]1` [Example 32, [5-(4,5-Difluoro-1H-benzoimidazol-2-yl)-4-isopropyl-pyrimidin-2-yl]-[3-(1-methyl-piperidin-4-yl)-propyl]-amine], 6.11 µM. Turning to `Cc1c(F)ccc2[nH]c(-c3cnc(NCCCC4CCN(C)CC4)cn3)nc12` [Example 33, [5-(5-Fluoro-4-methyl-1H-benzoimidazol-2-yl)-pyrazin-2-yl]-[3-(1-methyl-piperidin-4-yl)-propyl]-amine], the Ki was 0.25 µM. As for `Cc1ccc2[nH]c(-c3cnc(NCCCC4CCN(C)CC4)cn3)nc2c1C` [Example 34, [5-(4,5-Dimethyl-1H-benzoimidazol-2-yl)-pyrazin-2-yl]-[3-(1-methyl-piperidin-4-yl)-propyl]-amine], the figure is 0.68 µM; as for `Cc1nc(NCCCC2CCN(C)CC2)ncc1-c1nc2c(C(F)(F)F)cc(C(F)(F)F)cc2[nH]1` [Example 35, [5-(4,6-Bis-trifluoromethyl-1H-benzoimidazol-2-yl)-4-methyl-pyrimidin-2-yl]-[3-(1-methyl-piperidin-4-yl)-propyl]-amine], 0.011 µM.
